{"source": "patent US11950617B2", "about": "“Remediation of toxins in biorefinery process streams” (priority 2017, dated 2024)", "key": {"[1]": {"assay": "Laboratory treatment of corn ethanol syrup with bisulfite in a Parr 4560 reactor; DON measured by NEOGEN VERATOX for DON 2/3 kit", "protocol": "Encouraged by these initial test results, further testing was performed utilizing a design of experiments to determine an equation modeling the effect of time, temperature, and SBS in the treatment of syrup. Syrup from a corn ethanol biorefinery was obtained and processed in the laboratory. All thermal treatments were performed utilizing a Parr 4560 reactor and a combined total of 70 g of syrup and SBS per reaction. Reaction conditions were from 85° C. to 115° C.; for 2 to 6 hours; and 0 to 0.05 g sodium bisulfite per dry gram syrup. The results from this study indicated a correlation between the SBS loading and the reduction in syrup DON. The model predicts a greater than 85% reduction in syrup DON is likely if treatment in a commercial process syrup tank is utilized. It was calculated that at a plant that is currently producing DDGS with 14.5 ppm DON with a 95% reduction in syrup DON would produce DDGS with 4.6 ppm DON.\n(§1) Syrup from a corn ethanol biorefinery was obtained and processed in the laboratory. Treatment was performed utilizing a Parr 4560 reactor and a combined total of 70 g of syrup and SBS per reaction. The reaction condition was carried out at 50° C. for 120 minutes and varying amounts of sodium bisulfite per dry gram syrup. The DON was measured by NEOGEN™ VERATOX™ for DON 2/3 kit.\nas §1, with “85°” for “50°”, “30” for “120”, “to 180 minutes using 0.048 grams” for “and varying amounts of”\nSyrup from a corn ethanol biorefinery was obtained and processed in the laboratory using a Parr 4560 reactor and combined with either 0.048 grams of SBS or ammonium bisulfite per dry gram of syrup. Ammonium bisulfite was a 65% aqueous solution of 95% ammonium bisulfite and 5% potassium bisulfite. The doses of the two reagents used were molar equivalent bisulfite doses. The reaction condition was carried out at 85° C. for 30, 60 and 90 minutes."}, "[2]": {"assay": "DON analysis of DDGS sources and mixed diets of the pig trial", "conditions": "treated vs untreated DDGS", "description": "A treated mycotoxin in which the DON levels in DON-contaminated DDGS were reduced by the method described in Example 5 (1.5 gallons per minute of a 38% aqueous solution of SBS was supplied continuously into the feed line of the syrup tank) and samples of dried DDGS were collected, analyzed and tested for its effect on pig growth.\nA total of 247 growing pigs (55.3±4.6 lb.) were housed at a wean-to-finish facility, randomly allotted to 18 pens (13-14 pigs/pen) containing one 3-hole feeder 2 free-access nipple drinkers, and assigned to one of 3 experimental diets: control, DONDDGS, and treated-DDGS. All experimental diets were corn/soybean meal based containing 30% DDGS (low DON, DON contaminated, and treated DON DDGS, respectively; Table 1).\nAll diets met or exceeded nutrient requirements for growing pigs based on NRC (2012) and provided ad libitum. Experimental diets were fed for 21 days. Samples of the DDGS and corn used in the diets were analyzed for DON. Samples of the mixed diets were collected at day 0 and 21 and analyzed for proximate analysis and DON."}}}
{"compound": "O=S([O-])O.[Na+]", "note": "[SBS, sodium bisulfite]", "values": [{"measurement": "DON in the treated syrup as SBS dose increased (FIG. 4)", "setting": "[1]; 50° C., 120 minutes, varying amounts of sodium bisulfite per dry gram syrup", "result": "reduced"}, {"measurement": "DON in the treated syrup (FIG. 5)", "setting": "[1]; 85° C., 30 minutes dwell time, 0.048 grams sodium bisulfite per dry gram syrup", "result": "less than 1 ppm"}, {"measurement": "reduction in syrup DON predicted by the model", "setting": "[1]; design-of-experiments model (time, temperature, SBS), treatment in a commercial process syrup tank", "result": "greater than 85%"}, {"measurement": "DON reduction in the syrup stream", "setting": "[1]; syrup treated with SBS at process temperatures for extended time periods", "result": "greater than 85%"}, {"measurement": "reduction of DON content in DON-DDGS", "setting": "[2]", "result": 37, "unit": "%"}]}
